US10111847B2, “Compounds and methods for modulating vascular injury” (The Regents of the University of California, priority 2012, dated 2018)

How the values were obtained:
Assay type in all cases: cell-based, human
[1] = system: TNF-α-stimulated EC; assay: U937 monocyte adhesion to TNF-α-stimulated EC (Maresin-1); details: 1-100 nM, 30 min pretreatment; TNFα 1 ng/ml 4 hr
Procedure: MaR-1. VSMCs and ECs were seeded on a 96 well plate (20000 cells/well for VSMCs and 50000 cells/well for ECs) and after 2 days, were treated with Maresin-1 (1-100 nM) for 30 min followed by TNF-α for 4 hr and then calcein AM-labeled U937 cells were added on top of the VSMCs. After 15-minute incubation at 37 C, unbound cells were washed off with cold PBS. Fluorescence measurements (ex 494 nm, em 517 nm) of bound monocytes were taken with a plate reader. For capturing images, the assay was performed in 8-well chamber slides (Nunc Labtek) and images were taken after cold PBS wash (three times) following U937 incubation.
FIGS. 15A-15D. Representative images of Calcein-AM labeled U937 monocytes adhered to human sv-VSMCs pretreated with vehicle (A, B) or 7S-Maresin-1 (C) or 7S-Maresin-1 and pertussis toxin (D) for 30 min, followed by TNFα at 10 ng/ml for 4 hr (B, C, D). (E) Quantitative analysis of U937 adhesion assay in human sv-VSMCs and (F) human sv-ECs (1 ng/ml TNFα used for EC cells). […] Bar graph represents net quantitative densitometry analysis. […] Expression of MCP-1 was measured by qRT-PCR, and normalized to unstimulated cells (n=3, results are mean±SEM, P<0.05 for Mar-1 (10 and 100 nM) vs TNF alone, unpaired t-test).

[2] = system: IKKα/β subunit; assay: TNFα induced phosphorylation of IKKα/β in sv-VSMCs, western blot; details: 100 nm, 30 min; TNFα 10 ng/ml 15 min
Procedure: Mar-1. VSMCs and ECs were lysed in buffer (20 mM Tris-Hcl, 137 mM NaCl, 10% Glycerol, 1% NP-40) with protease and phosphatase inhibitors (Halt inhibitor capsules, Pierce, Inc) by sonication on ice. The lysates were instantly snap frozen in liquid nitrogen and thawed back later for western blotting. After centrifugation (15,000 g for 20 minutes), the whole cell extract (supernatant) was collected and was heated at 100° C. in Laemlli buffer for 6 minutes. Lysates were run on Mini-Protean TGX gels
(Biorad) and transferred on PVDF membranes which were probed with appropriate primary and secondary antibodies and visualized for quantitation using q-dot nanocrystals (Life Technologies, Inc).
Cells were pretreated with 100 nm of 7S/7R-Maresin-1 for 30 min, followed by TNFα (10 ng/ml for VSMC and 1 ng/ml for EC) for 15 min. Whole cell lysates were collected and probed for pan and phospho IKK (Cell Signaling Inc.).
FIG. 18. IKK-phospho and total IKK western blotting image is representative of three independent experiments. Bar graph represents net quantitative densitometry analysis. N=3. P≤0.05, One-way ANOVA with Dunnett's post hoc test. *: P≤0.05 compared to control, unpaired t-test. †: P≤0.05 compared to TNFα, unpaired t-test. Error bars: SEM.

[3] = system: ICAM-1, IL-1β, and IL-1α; assay: Gene expression in VSMC in presence or absence of pertussis toxin (PTX); details: RvD2 10 nM; PTX 100 ng/ml; TNF-α
Procedure: Cells are plated onto 6-well plates at 100% confluency in DMEM plus 10% FBS and allowed to attached overnight. Cells are then made quiescent by placing in serum-free media for 48-72 hours prior to start of experiments. Cells are treated with or without RvD1 or RvD2 at the indicated concentrations for one hour followed by co-incubation with cytokine (TNF-α 10 ng/ml) for up to 18 hours. In a separate set of experiments to examine the role of G-protein receptors, VSMCs are exposed to TNF-α and RvD2 (10 nM) as described above, in the presence or absence of pertussis toxin (PTX 100 ng/ml). Total RNA from rabbit sample or cells is isolated with PureLink RNA Mini kit (Ambion Life Technologies, Carlsbad, Calif.) with RNase-free DNase treatment according to manufacturer's protocol. One microgram of total RNA (from either VSMC or rabbit tissue) is used to generate cDNA using High Capacity cDNA Reverse Transcription Kit (Applied Biosystems, Foster City, Calif.) for subsequent RT-PCR reactions. Sybrgreen Amplified DNA is detected by incorporation SYBR Green (Qiagen, Germantown, Md.). […]
FIG. 9: Effects of RvD2 on gene expression in VSMC are sensitive to pertussis toxin (PTX). […] RNA was harvested and analyzed for the expression of ICAM-1, IL-1β, and IL-1α by qPCR (n=3, results are mean±SEM, **P<0.01, *P<0.05, one-way ANOVA followed by Bonferroni's post hoc test).

| SMILES | monocyte adhesion (U937) to TNF-α-stimulated EC [1] | TNFα induced phosphorylation of IKKα/β subunit in human sv-VSMCs [2] | effect of pertussis toxin on inhibition of ICAM-1, IL-1β, and IL-1α gene expression [3] |
| --- | --- | --- | --- |
| CC/C=C\C/C=C\C[C@H](O)\C=C/C=C/C=C/[C@@H](O)C/C=C\CCC(=O)O [7S-Maresin-1, 7S,14R-dihydroxydocosa-4Z,8E,10Z,12Z,16Z,19Z-hexaenoic acid] | dose-dependent inhibition | Reduce |  |
| CC/C=C\C[C@H](O)[C@H](O)/C=C/C=C/C=C\C=C\[C@@H](O)C/C=C\CCC(=O)O [RvD2, resolvin D2] |  |  | abrogation of the inhibitory effects |
